Measurements from ChEMBL document CHEMBL1155377, “SAR of PXR transactivation in benzimidazole-based IGF-1R kinase inhibitors” (Bioorg Med Chem Lett, 2010).

System: not listed separately
Assay: (§1) AUC in mouse plasma at 20 mg/kg, po
Type: ADME, organism-based
Design: dose 20 mg/kg, route oral
Settings: plasma

| AUC [µM·h] | Structure (SMILES) |
| --- | --- |
| 52 | COC(=O)N1CCN(C2CCN(c3cc(C)c4nc(-c5c(NCCn6cc(Cl)cn6)cc[nH]c5=O)[nH]c4c3)CC2)CC1 |
| 48 | COC(=O)N1CCN(C2CCN(c3cc(C)c4nc(-c5c(NCCc6ncn(C)c6Cl)cc[nH]c5=O)[nH]c4c3)CC2)CC1 |
| 11 | COC(=O)N1CCN(C2CCN(c3cc(C)c4nc(-c5c(NC[C@@H](O)c6cccc(Cl)c6)cc[nH]c5=O)[nH]c4c3)CC2)CC1 |

System: Mus musculus
Assay: as §1
Type: ADME, organism-based
Design: dose 20 mg/kg, route oral
Settings: in vivo

| AUC [µM·h] | Structure (SMILES) |
| --- | --- |
| 90 | Cc1cc(N2CCOCC2)cc2[nH]c(-c3c(NCCc4ncn(C)c4Cl)cc[nH]c3=O)nc12 |
| 51 | Cc1cc(N2CCOCC2)cc2[nH]c(-c3c(NCCn4cc(Cl)cn4)cc[nH]c3=O)nc12 |
| 8.2 | Cc1cc(N2CCOCC2)cc2[nH]c(-c3c(NC[C@@H](O)c4cccc(Cl)c4)cc[nH]c3=O)nc12 |
